Numbering of substitutions follows the chain as printed. Structures can show the parent of a compound that is named as a salt.
Key:
[1] = biological target: T1, FLT3-D835Y Ba/F3 cells (Homo sapiens, UniProt P36888, D835Y, cells depend on it); assay: Growth inhibitory activity against Ba/F3 cell line; type: cell-based; conditions: Ba/F3 expressing FLT3-D835Y; 72 hours; cell titer glo; read-out: IC50 (uM) FLT3-D835Y
T1 sequence (P36888 1-993 D835Y): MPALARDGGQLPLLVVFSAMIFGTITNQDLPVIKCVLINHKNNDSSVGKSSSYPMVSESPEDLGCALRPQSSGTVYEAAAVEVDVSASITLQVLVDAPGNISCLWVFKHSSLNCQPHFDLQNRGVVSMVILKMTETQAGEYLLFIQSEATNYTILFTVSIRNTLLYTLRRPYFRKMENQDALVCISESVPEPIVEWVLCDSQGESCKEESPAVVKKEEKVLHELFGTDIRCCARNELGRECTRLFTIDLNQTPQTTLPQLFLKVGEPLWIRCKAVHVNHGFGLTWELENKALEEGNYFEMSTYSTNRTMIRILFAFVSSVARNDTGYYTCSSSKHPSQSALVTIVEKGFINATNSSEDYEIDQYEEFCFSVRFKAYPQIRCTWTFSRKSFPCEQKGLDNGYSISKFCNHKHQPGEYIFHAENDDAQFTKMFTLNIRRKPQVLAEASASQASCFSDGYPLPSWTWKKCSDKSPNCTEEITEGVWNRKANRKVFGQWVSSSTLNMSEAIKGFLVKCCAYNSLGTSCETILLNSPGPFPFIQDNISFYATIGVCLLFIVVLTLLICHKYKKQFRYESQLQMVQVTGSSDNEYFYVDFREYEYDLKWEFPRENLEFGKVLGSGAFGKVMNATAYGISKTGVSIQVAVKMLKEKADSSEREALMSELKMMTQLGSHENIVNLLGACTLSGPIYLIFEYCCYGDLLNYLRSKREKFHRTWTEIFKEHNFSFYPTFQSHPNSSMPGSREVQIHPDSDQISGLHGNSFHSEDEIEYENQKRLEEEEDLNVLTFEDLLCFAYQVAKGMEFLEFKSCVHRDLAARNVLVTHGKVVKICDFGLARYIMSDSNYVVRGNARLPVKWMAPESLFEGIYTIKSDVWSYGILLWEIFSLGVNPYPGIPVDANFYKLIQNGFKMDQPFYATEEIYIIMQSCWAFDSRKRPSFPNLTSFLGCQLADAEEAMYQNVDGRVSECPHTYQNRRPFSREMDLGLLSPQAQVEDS
Protocol: (§1) A Ba/F3 cell line expressing an FLT3 mutation gene was cultured in a culture solution including 90% RPMI, 10% FBS, and an antibiotic (Welgene). 100 uL of the Ba/F3 cell line was put into each of 5,000 wells of a TC-treated 96 well plate (SPL), and then 1 uL of a test compound diluted in dimethylsulfoxide (diluted for each 3 paint from a concentration of 1 mM, total 10 concentrations) was each injected thereinto. Thereafter, the resulting cell lines were incubated in a cell culture incubator for 72 hours. 50 uL of a cell titer glo (Promega) solution was added thereto, the resulting mixture was stored at room temperature for 10 minutes, and then the light emission intensity was measured by using a reader (Envision, PerkinElmer). The light emission intensity was shown as a graph for each final concentration of the test compound, and the GI50 value was obtained by using a Prism 5.0 (GraphPad) software.

[2] = biological target: T2, FLT3-ITD-F691L Ba/F3 cells (Homo sapiens, UniProt P36888, F691L, cells depend on it, form not given); assay: Growth inhibitory activity against Ba/F3 cell line; type: cell-based; conditions: Ba/F3 expressing FLT3-ITD-F691L; 72 hours; cell titer glo; read-out: IC50 (uM) FLT3-ITD-F691L
T2 sequence (P36888 1-993 F691L): T1 sequence (P36888 1-993 D835Y) with F691L, Y835D
Protocol: as §1

Row | SMILES | GI50 [1] [µM] | GI50 [2] [µM]
1 | NC(=O)Nc1cc(C#Cc2ccccc2)sc1C(=O)N[C@H]1CCCNC1 [Example 2, (S)-5-(phenylethynyl)-N-(piperidin-3-yl)-3-ureidothiophene-2-carboxamide] | 0.002 | 0.004
2 | NC(=O)Nc1cc(C#Cc2cccnc2)sc1C(=O)N[C@H]1CCCNC1 [Example 3, (S)—N-(piperidin-3-yl)-5-(pyridin-3-ylethynyl)-3-ureidothiophene-2-carboxamide] | 0.05 | 0.099
3 | NC(=O)Nc1cc(C#Cc2ccncc2)sc1C(=O)N[C@H]1CCCNC1 [Example 4, (S)—N-(piperidin-3-yl)-5-(pyridin-4-ylethynyl)-3-ureidothiophene-2-carboxamide] | 0.408 | 1.1
4 | NC(=O)Nc1cc(C#Cc2cccc([N+](=O)[O-])c2)sc1C(=O)N[C@H]1CCCNC1 [Example 5, (S)-5-((3-nitrophenyl)ethynyl)-N-(piperidin-3-yl)-3-ureidothiophene-2-carboxamide] | 0.039 | 0.062
5 | N#Cc1cccc(C#Cc2cc(NC(N)=O)c(C(=O)N[C@H]3CCCNC3)s2)c1 [Example 6, (S)-5-((3-cyanophenyl)ethynyl)-N-(piperidin-3-yl)-3-ureidothiophene-2-carboxamide] | 0.041 | 0.055
6 | NC(=O)Nc1cc(C#Cc2ccc([N+](=O)[O-])cc2)sc1C(=O)N[C@H]1CCCNC1 [Example 7, (S)-5-((4-nitrophenyl)ethynyl)-N-(piperidin-3-yl)-3-ureidothiophene-2-carboxamide] | 0.07 | 0.089
7 | NC(=O)Nc1cc(C#Cc2ccc(Cl)cc2)sc1C(=O)N[C@H]1CCCNC1 [Example 8, (S)-5-((4-chlorophenyl)ethynyl)-N-(piperidin-3-yl)-3-ureidothiophene-2-carboxamide] | 0.01 | 0.013
8 | NC(=O)Nc1cc(C#Cc2ccc(F)cc2)sc1C(=O)N[C@H]1CCCNC1 [Example 9, (S)-5-((4-fluorophenyl)ethynyl)-N-(piperidin-3-yl)-3-ureidothiophene-2-carboxamide] | 0.003 | 0.005
9 | NC(=O)Nc1cc(C#Cc2ccccn2)sc1C(=O)N[C@H]1CCCNC1 [Example 10, (S)—N-(piperidin-3-yl)-5-(pyridin-2-ylethynyl)-3-ureidothiophene-2-carboxamide] | 0.041 | 0.066
10 | N#Cc1ccc(C#Cc2cc(NC(N)=O)c(C(=O)N[C@H]3CCCNC3)s2)cc1 [Example 11, (S)-5-((4-cyanophenyl)ethynyl)-N-(piperidin-3-yl)-3-ureidothiophene-2-carboxamide] | 0.003 | 0.004
11 | NC(=O)Nc1cc(C#Cc2n[nH]c3ccccc23)sc1C(=O)N[C@H]1CCCNC1 [Example 12, (S)-5-((1H-indazol-3-yl)ethynyl)-N-(piperidin-3-yl)-3-ureidothiophene-2-carboxamide] | 0.289 | 0.487
12 | NC(=O)Nc1cc(C#Cc2ccc(F)nc2)sc1C(=O)N[C@H]1CCCNC1 [Example 13, (S)-5-((6-fluoropyridin-3-yl)ethynyl)-N-(piperidin-3-yl)-3-ureidothiophene-2-carboxamide] | 0.014 | 0.022
13 | NC(=O)Nc1cc(C#Cc2ccc(F)c(F)c2)sc1C(=O)N[C@H]1CCCNC1 [Example 14, (S)-5-((3,4-difluorophenyl)ethynyl)-N-(piperidin-3-yl)-3-ureidothiophene-2-carboxamide] | 0.005 | 0.009
14 | Cn1cc(C#Cc2cc(NC(N)=O)c(C(=O)N[C@H]3CCCNC3)s2)cn1 [Example 15, (S)-5-((l-methyl-1H-pyrazol-4-yl)ethynyl)-N-(piperidin-3-yl)-3-ureidothiophene-2-carboxamide trifluoroacetate] | 0.268 | 0.216
15 | NC(=O)Nc1cc(C#Cc2ccc(C(F)(F)F)cc2)sc1C(=O)N[C@H]1CCCNC1 [Example 16, ((S)—N-(piperidin-3-yl)-5-((4-(trifluoromethyl)phenyl)ethynyl)-3-ureidothiophene-2-carboxamide trifluoroacetate] | 0.197 | 0.335
16 | NC(=O)Nc1cc(C#Cc2ccc(C(F)(F)F)nc2)sc1C(=O)N[C@H]1CCCNC1 [Example 17, (S)—N-(piperidin-3-yl)-5-((6-(trifluoromethyl)pyridin-3-yl)ethynyl)-3-ureidothiophene-2-carboxamide] | 0.064 | 0.069
17 | COC(=O)c1ccc(C#Cc2cc(NC(N)=O)c(C(=O)N[C@H]3CCCNC3)s2)cc1 [Example 18, methyl (S)-4-((5-(piperidin-3-ylcarbamoyl)-4-ureidothiophen-2-yl)ethynyl)benzoate trifluoroacetate] | 0.011 | 0.023
18 | NC(=O)Nc1cc(C#Cc2ccnc(F)c2)sc1C(=O)N[C@H]1CCCNC1 [Example 21, (S)-5-((2-fluoropyridin-4-yl)ethynyl)-N-(piperidin-3-yl)-3-ureidothiophene-2-carboxamide] | 0.041 | 0.087
19 | NC(=O)Nc1cc(C#Cc2cccc(F)c2)sc1C(=O)N[C@H]1CCCNC1 [Example 22, (S)-5-((3-fluorophenyl)ethynyl)-N-(piperidin-3-yl)-3-ureidothiophene-2-carboxamide] | 0.052 | 0.032
20 | CS(=O)(=O)N1CCC(n2cc(C#Cc3cc(NC(N)=O)c(C(=O)N[C@H]4CCCNC4)s3)cn2)CC1 [Example 23, (S)-5-((1-(1-(methylsulfonyl)piperidin-4-yl)-1H-pyrazol-4-yl)ethynyl)-N-(piperidin-3-yl)-3-ureidothiophene-2-carboxamide] | 0.18 | 0.267
21 | Cc1ccc(C#Cc2cc(NC(N)=O)c(C(=O)N[C@H]3CCCNC3)s2)cc1 [Example 24, (S)—N-(piperidin-3-yl)-5-(p-tolylethynyl)-3-ureidothiophene-2-carboxamide] | 0.039 | 0.058
22 | Cn1cc(C#Cc2cc(NC(N)=O)c(C(=O)NC3CCNC3)s2)cn1 (centres unmarked) [Example 39, 5-((1-methyl-1H-pyrazol-4-yl)ethynyl)-N-(pyrrolidin-3-yl)-3-ureidothiophene-2-carboxamide trifluoroacetate] | 34 | 19.1
